Results: paper PMC10065799, “High-throughput profiling of sequence recognition by tyrosine kinases and SH2 domains using bacterial peptide display” (eLife, 2023)
Each block holds one molecule with its values, some of them ahead of it.

What was measured:
c-Src kinase domain [1] = biological target: T1, c-Src kinase domain (Homo sapiens, UniProt P12931); test: ADP-Quest continuous fluorimetric kinase assay (Michaelis-Menten parameters and initial rates); format: biochemical; conditions: c-Src kinase domain 10 nM, 100 μM ATP, 37 °C, three to five replicates, error = standard error of global Michaelis-Menten fit
Source text: A fluorescence-based assay from Eurofins (ADP Quest) was used to measure the Michaelis-Menten kinetic parameters for phosphorylation of the consensus peptides by purified tyrosine kinase domains. In this assay, ADP production as a result of kinase activity is coupled to the production of resorufin, a fluorophore that emits signal at 590 nm. For all experiments, the assay reactions were set up as described in the provided assay kit protocol, in a 384 well plate format. The peptide solutions were serially diluted in 100 mM Tris, pH 8.0, and the kinases were diluted to 50 nM in buffer (10 mM HEPES, 100 mM NaCl, 1 mM TCEP, 5 mM MgCl2, 10% (v/v) glycerol). The final reaction mixtures contained 10 nM of kinase with 100 μM of ATP. […] Phosphorylation reaction progress was monitored by measuring fluorescence at excitation 530 nm and emission 590 nm every 2 min at 37 °C on a plate reader (BioTek Synergy Neo 2). The fluorescence units (RFU) were converted to μM ADP by comparison to a standard curve, and the initial rates were extracted from the linear regime of the reaction progress curves. Initial rates were also measured for samples containing each kinase but lacking a peptide substrate, to account for background ATP hydrolysis. This background rate was subtracted from the rates measured in the presence of peptide. […]

c-Src kinase domain [2] = biological target: T1, c-Src kinase domain; test: RP-HPLC assay to measure peptide phosphorylation kinetics; format: biochemical; conditions: purified peptide substrate
Method: To validate the enrichment scores observed in the c-Src screening data, the phosphorylation rates were measured in vitro with the purified catalytic domain of c-Src and synthetic 11-residue peptides derived from sequences in the pTyr-Var library. […] Reactions were initiated by adding 1 mM ATP. At various time points, 100 μL aliquots were removed and quenched by the addition of EDTA to a final concentration of 25 mM. Each time point sample was analyzed by analytical RP-HPLC, monitoring absorbance at 214 nm. Forty μL of each time point was injected onto a C18 column (ZORBAX 300 SB-C18, 5 μm, 4.6x150 mm). The solvent system used was water with 0.1% trifluoroacetic acid (solvent A) and acetonitrile with 0.1% trifluoroacetic acid (solvent B). […] The fractional product peak area was plotted as a function of reaction time, and the initial linear regime of this plot was fitted to a straight line to determine a reaction rate. Rates were corrected for substrate and enzyme concentration. Reactions were done in triplicate or quadruplicate.

Fyn kinase domain = test: LC-MS assay of intact SHP2 protein phosphorylation; format: biochemical, human; conditions: SHP2 10 μM, kinase 1 μM, 1 hr, 37 °C, 2 to 3 measurements
Method: (§1) The same protocol used to express and purify SH2 domains, excluding co-expression of BirA and addition of biotin, was applied to the expression and purification of the SHP2 variants.
(§2) To pre-activate the kinases, 1 μM of each purified kinase domain was preincubated at 37 °C for 30 min in the same buffer conditions used in the kinase domain peptide display screen, with 1 mM ATP. The reaction of the kinase with SHP2 was initiated with the addition of 10 μM SHP2, and the mixture was incubated in 37 °C for 1 hr. To terminate the reaction, the mixture was quenched with 200 mM EDTA. The reaction mixture was diluted 3:2 in water and injected onto a BEH C8 column (Waters) on a UPLC-MS system (Xevo QToF, Waters). Reverse-phase liquid chromatography was carried out at 0.3 mL/min with solvents A (H2O, 0.1% (v/v) formic acid) and B (acetonitrile, 0.1% (v/v) formic acid). Proteins were eluted over a gradient of 5–95% B for 8.5 min. The protein peak on the chromatogram was deconvoluted using the MaxEnt1 algorithm from 32,000–65,000 Da with a resolution of 1 Da/channel over 30 iterations. Peaks were chosen according to the theoretical MW of the protein within a range of 5 Da, and integrated for the signal intensity.

FGFR1 kinase domain = test: LC-MS assay of intact SHP2 protein phosphorylation; format: biochemical, human; conditions: SHP2 10 μM, kinase 1 μM, 1 hr, 37 °C, 2 to 3 measurements
Method: as §1, §2

- Km (c-Src kinase domain [1]): 7 ± 3 µM
- kcat (c-Src kinase domain [1]): 1.8±0.1 s^–1
Molecule: Ac-GAEEEIYGIFGAKKKG-NH2 [SrcTide (2014), previously reported c-Src consensus substrate (Deng et al., 2014)]

- Phosphorylation Rate (c-Src kinase domain [2]): 0.156 s⁻¹
Molecule: Ac-AGQEEYSAMRD-NH2 [HRAS-Y64]

- phosphorylation of intact SHP2 by Fyn (Fyn kinase domain): slowest
- phosphorylation of intact SHP2 by FGFR1 (FGFR1 kinase domain): fastest
B1: SHP2 wild-type: human full-length SHP2 (residues 1–526; C459E) (protein, UniProt Q06124 2-593, looked up, variant C459E)
Tyrosine-protein phosphatase …: TSRRWFHPNITGVEAENLLLTRGVDGSFLARPSKSNPGDFTLSVRRNGAVTHIKIQNTGDYYDLYGGEKFATLAELVQYYMEHHGQLKEKNGDVIELKYPLNCADPTSERWFHGHLSGKEAEKLLTEKGKHGSFLVRESQSHPGDFVLSVRTGDDKGESNDGKSKVTHVMIRCQELKYDVGGGERFDSLTDLVEHYKKNPMVETLGTVLQLKQPLNTTRINAAEIESRVRELSKLAETTDKVKQGFWEEFETLQQQECKLLYSRKEGQRQENKNKNRYKNILPFDHTRVVLHDGDPNEPVSDYINANIIMPEFETKCNNSKPKKSYIATQGCLQNTVNDFWRMVFQENSRVIVMTTKEVERGKSKCVKYWPDEYALKEYGVMRVRNVKESAAHDYTLRELKLSKVGQGNTERTVWQYHFRTWPDHGVPSDPGGVLDFLEEVHHKQESIMDAGPVVVHESAGIGRTGTFIVIDILIDIIREKGVDCDIDVPKTIQMVRSQRSGMVQTEAQYRFIYMAVQHYIETLQRRIEEEQKSKRKGHEYTNIKYSLADQTSGDQSPLPPCTPTPPCAEMREDSARVYENVGLMQQQKSFR
